Assay results published in patent US11806323B2, “Topical anesthetics” (PTC Innovations, LLC, priority 2022, dated 2023).

These compounds were tested against T1, Nav1.7 (Homo sapiens, UniProt Q15858) (assay: Patch clamp testing, Nav1.7 ion channel inhibition (SyncroPatch 384PE)). Details: not given.
T1 construct: ChanTest Corp; host or cells: CHO cells (Chinese hamster)
Type: cell-based
Experimental: An examination of the in vitro effects of the compounds consistent with the present disclosure on ion channels Nav1.5 (a sodium voltage-gated channel alpha subunit found predominantly in cardiac muscle cells) and Nav1.7 (a sodium voltage-gated channel alpha subunit normally expressed in high levels in nociceptive pain neurons at dorsal root ganglion (DRG) and trigeminal ganglion and in sympathetic ganglion neurons) was performed using adult epithelial (ovarian) tissue CHO cells of Chinese hamsters (C. griseus) […] transfected with human ion channel cDNAs (ATCC, Manassas, VA; ChanTest Corp., Cleveland, OH). Cells were cultured in Ham's F-12 medium supplemented with 10% fetal bovine serum, 100 U/mL penicillin G sodium, 100 μg/mL streptomycin sulfate, and 500 μg/mL G418 aminoglycoside antibiotic.
(§1) Each compound was analyzed at concentrations of 1000 μM, 300 μM, 100 μM, 30 μM, 10 μM, 3 μM, 1 μM, and 0.3 μM. […] All tested compound formulations contained 0.3% DMSO. Each concentration of each compound was loaded into a well of a 384-well polypropylene compound plate using an automated liquid handling system (Integra Assist Plus, Integra) and then placed in the plate well of SyncroPatch 384PE (SP384PE; Nanion Technologies, Livingston, NJ) immediately before application of the cells.
Observed IC50 values of the channel current inhibition for each test article are provided in Table 8 (Nav1.5 ion channel inhibition) and Table 9 (Nav1.7 ion channel inhibition).

T1 sequence (Q15858 whole entry): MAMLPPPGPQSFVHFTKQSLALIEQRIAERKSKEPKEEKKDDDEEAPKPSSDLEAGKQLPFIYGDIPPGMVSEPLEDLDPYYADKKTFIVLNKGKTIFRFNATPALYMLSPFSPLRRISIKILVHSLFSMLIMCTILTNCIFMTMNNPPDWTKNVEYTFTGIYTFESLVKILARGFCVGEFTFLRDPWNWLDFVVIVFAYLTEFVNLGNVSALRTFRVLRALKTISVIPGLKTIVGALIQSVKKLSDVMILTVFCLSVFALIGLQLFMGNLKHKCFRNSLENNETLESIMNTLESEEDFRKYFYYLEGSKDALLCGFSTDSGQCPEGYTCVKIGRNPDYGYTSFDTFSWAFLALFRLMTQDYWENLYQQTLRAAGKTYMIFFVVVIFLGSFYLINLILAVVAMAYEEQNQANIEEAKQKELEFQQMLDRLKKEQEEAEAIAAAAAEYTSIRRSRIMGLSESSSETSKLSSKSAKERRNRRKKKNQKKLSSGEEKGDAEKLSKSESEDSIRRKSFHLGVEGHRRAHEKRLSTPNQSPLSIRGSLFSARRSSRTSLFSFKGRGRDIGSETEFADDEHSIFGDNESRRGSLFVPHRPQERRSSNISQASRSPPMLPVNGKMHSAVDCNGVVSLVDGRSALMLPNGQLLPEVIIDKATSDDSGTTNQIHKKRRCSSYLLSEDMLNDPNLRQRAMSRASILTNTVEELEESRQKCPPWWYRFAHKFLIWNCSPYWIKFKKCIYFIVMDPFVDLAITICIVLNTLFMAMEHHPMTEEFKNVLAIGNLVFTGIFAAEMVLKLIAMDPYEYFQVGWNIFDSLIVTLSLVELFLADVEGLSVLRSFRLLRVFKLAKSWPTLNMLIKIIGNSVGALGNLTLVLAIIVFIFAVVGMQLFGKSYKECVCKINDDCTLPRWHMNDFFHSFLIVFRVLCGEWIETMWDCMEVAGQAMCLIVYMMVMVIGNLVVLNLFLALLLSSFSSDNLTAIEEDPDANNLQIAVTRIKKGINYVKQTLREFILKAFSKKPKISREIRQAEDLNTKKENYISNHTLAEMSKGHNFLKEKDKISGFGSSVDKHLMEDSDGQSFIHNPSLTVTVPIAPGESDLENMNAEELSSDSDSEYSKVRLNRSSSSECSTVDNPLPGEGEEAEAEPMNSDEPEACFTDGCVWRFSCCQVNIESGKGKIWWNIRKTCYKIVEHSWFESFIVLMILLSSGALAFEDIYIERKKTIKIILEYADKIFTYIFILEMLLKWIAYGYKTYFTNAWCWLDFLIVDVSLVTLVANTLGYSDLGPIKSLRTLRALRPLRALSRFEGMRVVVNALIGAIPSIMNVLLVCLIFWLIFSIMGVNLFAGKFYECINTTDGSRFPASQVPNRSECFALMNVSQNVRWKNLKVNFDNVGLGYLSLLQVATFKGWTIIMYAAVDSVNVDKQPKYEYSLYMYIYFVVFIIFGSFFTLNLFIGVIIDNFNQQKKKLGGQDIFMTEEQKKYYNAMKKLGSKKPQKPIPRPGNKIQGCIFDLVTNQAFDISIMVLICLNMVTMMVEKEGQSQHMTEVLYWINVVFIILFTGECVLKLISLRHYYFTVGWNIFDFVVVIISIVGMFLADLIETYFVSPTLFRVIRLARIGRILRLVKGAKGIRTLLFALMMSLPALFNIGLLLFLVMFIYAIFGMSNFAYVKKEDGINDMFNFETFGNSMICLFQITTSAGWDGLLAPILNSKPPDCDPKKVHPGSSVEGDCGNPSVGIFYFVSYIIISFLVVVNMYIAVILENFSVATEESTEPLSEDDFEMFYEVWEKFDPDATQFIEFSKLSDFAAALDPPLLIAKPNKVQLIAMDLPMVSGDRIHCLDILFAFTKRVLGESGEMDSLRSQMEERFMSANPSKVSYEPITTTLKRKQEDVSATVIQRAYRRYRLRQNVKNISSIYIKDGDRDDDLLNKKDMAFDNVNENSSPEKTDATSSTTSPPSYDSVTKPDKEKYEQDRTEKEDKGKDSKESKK

Compound | IC50
COc1ccc(N(C)C(=O)CN(CCN(C)C)c2ccccc2OC)cc1 [Compound 2293] | > 1000 µM
COc1ccc(N(C)C(=O)CN(CCN(C)C)c2ccccc2C)cc1 [Compound 2295] | > 1000 µM

Same assay, conditions: TP1A = Tonic Block; CHO cells transfected with human ion channel cDNA; 0.3% DMSO; read-out: Inhibition of Nav1.7 Ion Channel IC50, TP1A

Compound | IC50
COc1ccc(N(C)C(=O)CN(CCN(C)C)c2ccc(F)c(Cl)c2)cc1 [Compound 2299] | 393 µM
COc1ccc(N(C)C(=O)CN(CCN(C)C)c2cccc(OC(F)(F)F)c2)cc1 [Compound 2296] | 265 µM
COc1ccc(N(C)C(=O)CN(CCN(C)C)c2ccc(Cl)c(Cl)c2)cc1 [Compound 2292] | 165 µM
COc1ccc(N(C)C(=O)CN(CCN(C)C)c2ccc(Cl)c(C(F)(F)F)c2)cc1 [Compound 2297] | 74.7 µM
COc1ccc(N(C)C(=O)CN(CCN(C)C)c2cccc(Cl)c2)cc1 [Compound 2291] | 561 µM
COc1ccc(N(C)C(=O)CN(CCN(C)C)c2ccccc2OC)cc1 [Compound 2293] | > 1000 µM
COc1ccc(N(C)C(=O)CN(CCN(C)C)c2cccc(Cl)c2F)cc1 [Compound 2300] | 546 µM
COc1ccc(N(C)C(=O)CN(CCN2CCN(C)CC2)c2ccccc2)cc1 [Compound 2304] | > 1000 µM
COc1ccc(N(C)C(=O)CN(CCN2CCCCC2)c2ccccc2)cc1 [Compound 2303] | 15 µM
COc1ccc(N(C)C(=O)CN(CCN(C)C)c2cc(Cl)ccc2Cl)cc1 [Compound 2298] | 273 µM
CCN(CC)CC(=O)Nc1c(C)cccc1C [Lidocaine, reference compound] | 408 µM
COc1ccc(N(C)C(=O)CN(CCN(C)C)c2ccccc2C)cc1 [Compound 2295] | > 1000 µM
COc1ccc(N(C)C(=O)CN(CCN)c2ccccc2)cc1 [Compound 2302] | 70.2 µM
COc1ccc(N(CCN(C)C)CC(=O)N(C)c2ccc(OC)cc2)cc1 [Compound 2294] | > 1000 µM
COc1ccc(N(C)C(=O)CN(CCN(C)C)c2ccccc2C(F)(F)F)cc1 [Compound 2301] | 312 µM
COc1ccc(N(C)C(=O)CN(CCN(C)C)c2ccccc2)cc1 [Compound 2290] | > 1000 µM

Same assay, conditions: TP2A = Inactivated State-Dependent Block; CHO cells transfected with human ion channel cDNA; 0.3% DMSO; read-out: Inhibition of Nav1.7 Ion Channel IC50, TP2A

Compound | IC50
COc1ccc(N(C)C(=O)CN(CCN(C)C)c2ccc(F)c(Cl)c2)cc1 [Compound 2299] | 315 µM
COc1ccc(N(C)C(=O)CN(CCN(C)C)c2cccc(OC(F)(F)F)c2)cc1 [Compound 2296] | 231 µM
COc1ccc(N(C)C(=O)CN(CCN(C)C)c2ccc(Cl)c(Cl)c2)cc1 [Compound 2292] | 162 µM
COc1ccc(N(C)C(=O)CN(CCN(C)C)c2ccc(Cl)c(C(F)(F)F)c2)cc1 [Compound 2297] | 66.2 µM
COc1ccc(N(C)C(=O)CN(CCN(C)C)c2cccc(Cl)c2)cc1 [Compound 2291] | 463 µM
COc1ccc(N(C)C(=O)CN(CCN(C)C)c2cccc(Cl)c2F)cc1 [Compound 2300] | 673 µM
COc1ccc(N(C)C(=O)CN(CCN2CCN(C)CC2)c2ccccc2)cc1 [Compound 2304] | > 1000 µM
COc1ccc(N(C)C(=O)CN(CCN2CCCCC2)c2ccccc2)cc1 [Compound 2303] | 14.5 µM
COc1ccc(N(C)C(=O)CN(CCN(C)C)c2cc(Cl)ccc2Cl)cc1 [Compound 2298] | 229 µM
CCN(CC)CC(=O)Nc1c(C)cccc1C [Lidocaine, reference compound] | 23.7 µM
COc1ccc(N(C)C(=O)CN(CCN)c2ccccc2)cc1 [Compound 2302] | 77.9 µM
COc1ccc(N(CCN(C)C)CC(=O)N(C)c2ccc(OC)cc2)cc1 [Compound 2294] | > 1000 µM
COc1ccc(N(C)C(=O)CN(CCN(C)C)c2ccccc2C(F)(F)F)cc1 [Compound 2301] | 275 µM
COc1ccc(N(C)C(=O)CN(CCN(C)C)c2ccccc2)cc1 [Compound 2290] | > 1000 µM

Same assay, conditions: TP25B = Use-Dependent Block; CHO cells transfected with human ion channel cDNA; 0.3% DMSO; read-out: Inhibition of Nav1.7 Ion Channel IC50, TP25B

Compound | IC50
COc1ccc(N(C)C(=O)CN(CCN(C)C)c2ccc(F)c(Cl)c2)cc1 [Compound 2299] | 334 µM
COc1ccc(N(C)C(=O)CN(CCN(C)C)c2cccc(OC(F)(F)F)c2)cc1 [Compound 2296] | 210 µM
COc1ccc(N(C)C(=O)CN(CCN(C)C)c2ccc(Cl)c(Cl)c2)cc1 [Compound 2292] | 167 µM
COc1ccc(N(C)C(=O)CN(CCN(C)C)c2ccc(Cl)c(C(F)(F)F)c2)cc1 [Compound 2297] | 54.4 µM
COc1ccc(N(C)C(=O)CN(CCN(C)C)c2cccc(Cl)c2)cc1 [Compound 2291] | 490 µM
COc1ccc(N(C)C(=O)CN(CCN(C)C)c2cccc(Cl)c2F)cc1 [Compound 2300] | 626 µM
COc1ccc(N(C)C(=O)CN(CCN2CCN(C)CC2)c2ccccc2)cc1 [Compound 2304] | > 1000 µM
COc1ccc(N(C)C(=O)CN(CCN2CCCCC2)c2ccccc2)cc1 [Compound 2303] | 13.1 µM
COc1ccc(N(C)C(=O)CN(CCN(C)C)c2cc(Cl)ccc2Cl)cc1 [Compound 2298] | 220 µM
CCN(CC)CC(=O)Nc1c(C)cccc1C [Lidocaine, reference compound] | 113 µM
COc1ccc(N(C)C(=O)CN(CCN)c2ccccc2)cc1 [Compound 2302] | 55.4 µM
COc1ccc(N(CCN(C)C)CC(=O)N(C)c2ccc(OC)cc2)cc1 [Compound 2294] | > 1000 µM
COc1ccc(N(C)C(=O)CN(CCN(C)C)c2ccccc2C(F)(F)F)cc1 [Compound 2301] | 235 µM
COc1ccc(N(C)C(=O)CN(CCN(C)C)c2ccccc2)cc1 [Compound 2290] | > 1000 µM

Same assay, conditions: read-out: Inhibition of Nav1.7 Ion Channel IC50, TP25B; TP25B = Use-Dependent Block; CHO cells transfected with human ion channel cDNA; 0.3% DMSO

Compound | IC50
COc1ccc(N(C)C(=O)CN(CCN(C)C)c2ccccc2OC)cc1 [Compound 2293] | > 1000 µM
COc1ccc(N(C)C(=O)CN(CCN(C)C)c2ccccc2C)cc1 [Compound 2295] | > 1000 µM

The compounds below were run against T2, Nav1.5 (Homo sapiens, UniProt Q14524) (assay: Patch clamp testing, Nav1.5 ion channel inhibition (SyncroPatch 384PE)). Details: not given.
T2 construct: ChanTest Corp; host or cells: CHO cells (Chinese hamster)
Type: cell-based
Experimental: Cells were cultured in Ham's F-12 medium supplemented with 10% fetal bovine serum, 100 U/mL penicillin G sodium, 100 μg/mL streptomycin sulfate, and 500 μg/mL G418 aminoglycoside antibiotic.
as §1

T2 sequence (Q14524 whole entry): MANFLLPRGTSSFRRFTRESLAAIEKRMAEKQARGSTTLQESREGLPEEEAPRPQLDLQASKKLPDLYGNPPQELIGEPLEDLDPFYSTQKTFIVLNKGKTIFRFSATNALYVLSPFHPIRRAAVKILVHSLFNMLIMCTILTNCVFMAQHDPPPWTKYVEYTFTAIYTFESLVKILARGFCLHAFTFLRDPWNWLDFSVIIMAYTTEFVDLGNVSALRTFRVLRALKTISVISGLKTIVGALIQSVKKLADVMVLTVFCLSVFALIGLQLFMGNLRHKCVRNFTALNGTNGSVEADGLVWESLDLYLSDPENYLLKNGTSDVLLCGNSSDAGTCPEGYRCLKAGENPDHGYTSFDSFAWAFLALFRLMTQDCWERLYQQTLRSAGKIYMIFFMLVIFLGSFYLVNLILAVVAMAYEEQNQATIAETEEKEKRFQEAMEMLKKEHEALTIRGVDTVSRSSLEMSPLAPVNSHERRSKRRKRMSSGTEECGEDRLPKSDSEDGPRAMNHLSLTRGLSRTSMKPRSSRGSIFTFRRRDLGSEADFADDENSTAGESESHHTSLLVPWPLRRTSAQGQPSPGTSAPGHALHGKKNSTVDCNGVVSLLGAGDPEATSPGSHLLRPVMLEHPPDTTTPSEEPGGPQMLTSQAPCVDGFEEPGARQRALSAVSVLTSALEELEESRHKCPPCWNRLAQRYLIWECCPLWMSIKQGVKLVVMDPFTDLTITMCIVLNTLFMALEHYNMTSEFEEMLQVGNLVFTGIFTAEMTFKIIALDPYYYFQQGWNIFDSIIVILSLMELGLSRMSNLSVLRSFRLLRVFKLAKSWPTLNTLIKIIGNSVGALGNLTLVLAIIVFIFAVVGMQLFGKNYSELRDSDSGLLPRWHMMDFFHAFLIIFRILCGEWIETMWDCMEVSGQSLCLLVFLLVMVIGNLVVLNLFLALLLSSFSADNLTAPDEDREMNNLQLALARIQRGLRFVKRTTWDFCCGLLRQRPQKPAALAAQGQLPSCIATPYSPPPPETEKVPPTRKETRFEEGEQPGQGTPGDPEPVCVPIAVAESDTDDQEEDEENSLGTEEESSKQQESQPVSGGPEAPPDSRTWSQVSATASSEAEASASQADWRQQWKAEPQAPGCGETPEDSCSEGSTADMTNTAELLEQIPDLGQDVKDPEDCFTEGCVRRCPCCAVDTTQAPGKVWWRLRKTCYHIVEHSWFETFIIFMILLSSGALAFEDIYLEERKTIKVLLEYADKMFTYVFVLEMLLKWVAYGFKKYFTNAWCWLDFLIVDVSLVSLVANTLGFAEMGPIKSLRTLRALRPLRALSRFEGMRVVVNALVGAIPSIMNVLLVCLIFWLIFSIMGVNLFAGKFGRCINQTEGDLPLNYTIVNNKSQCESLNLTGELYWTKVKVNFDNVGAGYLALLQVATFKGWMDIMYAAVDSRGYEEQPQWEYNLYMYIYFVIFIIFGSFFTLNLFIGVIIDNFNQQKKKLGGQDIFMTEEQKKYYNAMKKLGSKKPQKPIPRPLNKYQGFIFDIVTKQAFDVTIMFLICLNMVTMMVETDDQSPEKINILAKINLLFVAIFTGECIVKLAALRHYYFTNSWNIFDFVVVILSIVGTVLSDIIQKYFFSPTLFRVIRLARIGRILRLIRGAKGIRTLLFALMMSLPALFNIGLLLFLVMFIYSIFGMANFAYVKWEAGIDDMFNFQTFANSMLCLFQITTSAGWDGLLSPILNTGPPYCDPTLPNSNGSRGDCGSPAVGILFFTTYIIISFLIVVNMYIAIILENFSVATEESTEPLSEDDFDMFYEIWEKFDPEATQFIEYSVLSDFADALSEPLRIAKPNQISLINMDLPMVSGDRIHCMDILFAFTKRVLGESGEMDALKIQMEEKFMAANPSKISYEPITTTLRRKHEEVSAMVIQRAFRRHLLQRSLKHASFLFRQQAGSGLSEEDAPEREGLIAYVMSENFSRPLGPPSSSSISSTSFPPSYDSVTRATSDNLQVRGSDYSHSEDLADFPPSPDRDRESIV

Compound | IC50
COc1ccc(N(C)C(=O)CN(CCN(C)C)c2ccccc2OC)cc1 [Compound 2293] | > 1000 µM
COc1ccc(N(C)C(=O)CN(CCN(C)C)c2ccccc2C)cc1 [Compound 2295] | > 1000 µM

Same assay, conditions: Inhibition of Nav1.5 Ion Channel IC50, TP1A, TP1A = Tonic Block; CHO cells transfected with human ion channel cDNA; 0.3% DMSO

Compound | IC50
COc1ccc(N(C)C(=O)CN(CCN(C)C)c2ccc(F)c(Cl)c2)cc1 [Compound 2299] | 515 µM
COc1ccc(N(C)C(=O)CN(CCN(C)C)c2cccc(OC(F)(F)F)c2)cc1 [Compound 2296] | 254 µM
COc1ccc(N(C)C(=O)CN(CCN(C)C)c2ccc(Cl)c(Cl)c2)cc1 [Compound 2292] | 208 µM
COc1ccc(N(C)C(=O)CN(CCN(C)C)c2ccc(Cl)c(C(F)(F)F)c2)cc1 [Compound 2297] | 95.1 µM
COc1ccc(N(C)C(=O)CN(CCN(C)C)c2cccc(Cl)c2)cc1 [Compound 2291] | 808 µM
COc1ccc(N(C)C(=O)CN(CCN(C)C)c2cccc(Cl)c2F)cc1 [Compound 2300] | 327 µM
COc1ccc(N(C)C(=O)CN(CCN2CCN(C)CC2)c2ccccc2)cc1 [Compound 2304] | > 1000 µM
COc1ccc(N(C)C(=O)CN(CCN2CCCCC2)c2ccccc2)cc1 [Compound 2303] | 16.6 µM
COc1ccc(N(C)C(=O)CN(CCN(C)C)c2cc(Cl)ccc2Cl)cc1 [Compound 2298] | 249 µM
COc1ccc(N(C)C(=O)CN(CCN)c2ccccc2)cc1 [Compound 2302] | 124 µM
COc1ccc(N(CCN(C)C)CC(=O)N(C)c2ccc(OC)cc2)cc1 [Compound 2294] | > 1000 µM
COc1ccc(N(C)C(=O)CN(CCN(C)C)c2ccccc2C(F)(F)F)cc1 [Compound 2301] | 265 µM
COc1ccc(N(C)C(=O)CN(CCN(C)C)c2ccccc2)cc1 [Compound 2290] | > 1000 µM

Same assay, conditions: Inhibition of Nav1.5 Ion Channel IC50, TP2A, TP2A = Inactivated State-Dependent Block; CHO cells transfected with human ion channel cDNA; 0.3% DMSO

Compound | IC50
COc1ccc(N(C)C(=O)CN(CCN(C)C)c2ccc(F)c(Cl)c2)cc1 [Compound 2299] | 449 µM
COc1ccc(N(C)C(=O)CN(CCN(C)C)c2cccc(OC(F)(F)F)c2)cc1 [Compound 2296] | 236 µM
COc1ccc(N(C)C(=O)CN(CCN(C)C)c2ccc(Cl)c(Cl)c2)cc1 [Compound 2292] | 216 µM
COc1ccc(N(C)C(=O)CN(CCN(C)C)c2ccc(Cl)c(C(F)(F)F)c2)cc1 [Compound 2297] | 91.2 µM
COc1ccc(N(C)C(=O)CN(CCN(C)C)c2cccc(Cl)c2)cc1 [Compound 2291] | 740 µM
COc1ccc(N(C)C(=O)CN(CCN(C)C)c2ccccc2OC)cc1 [Compound 2293] | > 1000 µM
COc1ccc(N(C)C(=O)CN(CCN(C)C)c2cccc(Cl)c2F)cc1 [Compound 2300] | 307 µM
COc1ccc(N(C)C(=O)CN(CCN2CCN(C)CC2)c2ccccc2)cc1 [Compound 2304] | 880 µM
COc1ccc(N(C)C(=O)CN(CCN2CCCCC2)c2ccccc2)cc1 [Compound 2303] | 13.5 µM
COc1ccc(N(C)C(=O)CN(CCN(C)C)c2cc(Cl)ccc2Cl)cc1 [Compound 2298] | 240 µM
COc1ccc(N(C)C(=O)CN(CCN(C)C)c2ccccc2C)cc1 [Compound 2295] | > 1000 µM
COc1ccc(N(C)C(=O)CN(CCN)c2ccccc2)cc1 [Compound 2302] | 96.8 µM
COc1ccc(N(CCN(C)C)CC(=O)N(C)c2ccc(OC)cc2)cc1 [Compound 2294] | > 1000 µM
COc1ccc(N(C)C(=O)CN(CCN(C)C)c2ccccc2C(F)(F)F)cc1 [Compound 2301] | 243 µM
COc1ccc(N(C)C(=O)CN(CCN(C)C)c2ccccc2)cc1 [Compound 2290] | > 1000 µM

Same assay, conditions: Inhibition of Nav1.5 Ion Channel IC50, TP25B, TP25B = Use-Dependent Block; CHO cells transfected with human ion channel cDNA; 0.3% DMSO

Compound | IC50
COc1ccc(N(C)C(=O)CN(CCN(C)C)c2ccc(F)c(Cl)c2)cc1 [Compound 2299] | 505 µM
COc1ccc(N(C)C(=O)CN(CCN(C)C)c2cccc(OC(F)(F)F)c2)cc1 [Compound 2296] | 222 µM
COc1ccc(N(C)C(=O)CN(CCN(C)C)c2ccc(Cl)c(Cl)c2)cc1 [Compound 2292] | 193 µM
COc1ccc(N(C)C(=O)CN(CCN(C)C)c2ccc(Cl)c(C(F)(F)F)c2)cc1 [Compound 2297] | 72.7 µM
COc1ccc(N(C)C(=O)CN(CCN(C)C)c2cccc(Cl)c2)cc1 [Compound 2291] | 693 µM
COc1ccc(N(C)C(=O)CN(CCN(C)C)c2ccccc2OC)cc1 [Compound 2293] | > 1000 µM
COc1ccc(N(C)C(=O)CN(CCN(C)C)c2cccc(Cl)c2F)cc1 [Compound 2300] | 259 µM
COc1ccc(N(C)C(=O)CN(CCN2CCN(C)CC2)c2ccccc2)cc1 [Compound 2304] | 670 µM
COc1ccc(N(C)C(=O)CN(CCN2CCCCC2)c2ccccc2)cc1 [Compound 2303] | 9.5 µM
COc1ccc(N(C)C(=O)CN(CCN(C)C)c2cc(Cl)ccc2Cl)cc1 [Compound 2298] | 204 µM
COc1ccc(N(C)C(=O)CN(CCN(C)C)c2ccccc2C)cc1 [Compound 2295] | > 1000 µM
COc1ccc(N(C)C(=O)CN(CCN)c2ccccc2)cc1 [Compound 2302] | 75.9 µM
COc1ccc(N(CCN(C)C)CC(=O)N(C)c2ccc(OC)cc2)cc1 [Compound 2294] | > 1000 µM
COc1ccc(N(C)C(=O)CN(CCN(C)C)c2ccccc2C(F)(F)F)cc1 [Compound 2301] | 154 µM
COc1ccc(N(C)C(=O)CN(CCN(C)C)c2ccccc2)cc1 [Compound 2290] | > 1000 µM
